Patent US4798827A, “Synergistin derivatives and pharmaceutical compositions which contain them” (Rhone-Poulenc Sante, priority 1986, dated 1989)
Numbered stars: 1 amine (or outer) side, 2 acyl side, 3 side chain; on linkers, the order of the positions; unused ones are H or OH. Bridge positions count the residues as written; N and C are the ends. Square brackets hold non-standard residues; d marks the D form. Peptide text beside a SMILES is read from it. * marks the point of attachment. X1 = O=C1C[C@@H](C(=O)[*:2])N([*:1])C[C@H]1CS[C@@H]1CN2CCC1CC2; NMePhe(4-NMe2) = CN[C@@H](Cc1ccc(N(C)C)cc1)C(=O)O; Picolinoyl(3-OH) = O=C(c1ncccc1O)*; Phg = N[C@H](C(=O)O)c1ccccc1; dAbu = CC[C@@H](N)C(=O)O

Experiment: solubility in water (as salts / hydrochlorides)
Conditions: product with 0.1N hydrochloric acid and distilled water

In the case of `CC[C@H]1NC(=O)[C@@H](NC(=O)c2ncccc2O)[C@@H](C)OC(=O)[C@H](c2ccccc2)NC(=O)[C@@H]2CC(=O)[C@H](CS[C@@H]3CN4CCC3CC4)CN2C(=O)[C@H](Cc2ccc(N(C)C)cc2)N(C)C(=O)[C@@H]2CCCN2C1=O` [Example 1, 5δ-[(3-Quinuclidinyl)thiomethyl]pristinamycin IA] ({Picolinoyl(3-OH)}-T[dAbu]P[NMePhe(4-NMe2)][X1][Phg]; ester 1-C), the “strength of aqueous solution obtained” value is reported as 5%.
